{
  "source": "patent EP0450480B1",
  "about": "“Somatostatin Analogues” (The Administrators of The Tulane Educational Fund, priority 1990, dated 1991)",
  "key": {"GH release": {"tested_on": "GH release", "details": "relative to somatostatin; cited from earlier work"}, "MiaPaCa cells": {"tested_on": "MiaPaCa cells", "test": "Growth of MiaPaCa cells measured by cell counts", "type": "cell-based, human"}, "[1]": {"tested_on": "human pancreatic MiaPaCa cancer cell line", "test": "Inhibition of 3H-thymidine incorporation into DNA, MiaPaCa cells", "type": "cell-based", "protocol": "The ability of peptides of Formula I to inhibit incorporation of [³H]thymidine into DNA of monolayer cultures the small cell lung cancer line H-69 and MiaPaCa cell line is assayed as described by Kern et al. (Cancer Res., 45, 5436 (1985).\n1x10⁵ cells are plated with DME media containing 10% fetal calf serum (FCS) on Day 0. After 24 hours media is removed and replaced with DME media without serum and incubated at 37°C for 2 days. Media was then removed and replaced with DME media containing 5% FCS with or without somatostatin analog. Media with peptides was changed daily for 4 days. On day 4, 1 »Ci ³H-thymidine added and incubated an additional 17 hrs. Media is then removed and cells recovered by trypsination. DNA extracted with 1 N perchloric acid and the radioactivity measured."}, "[2]": {"tested_on": "human mammary cell line MDA-MB-231", "details": "at 10 »g dose; cited from earlier work"}, "[3]": {"details": "in vivo; cited from earlier work"}},
  "note": "Marks after values point to notes of the source that are not given here. Square brackets hold non-standard residues; d marks the D form. Ends that are not written are not given here.",
  "data": [
    {"molecule": "D-Phe-Cys-Tyr-D-Trp-Lys-Val-Cys-Thr-NH₂", "values": [
      {"measurement": "times more potent than somatostatin in test for inhibition of GH release", "setting": "GH release", "result": "more than 100 times"}
    ]},
    {"molecule": "N[C@@H](Cc1ccc(N(CCCl)CCCl)cc1)C(=O)O", "note": "[Melphalan, 4-[bis{2-chloroethyl}amino]-phenylalanine]", "values": [
      {"measurement": "% Decrease in cell number", "setting": "MiaPaCa cells; Dose 10⁻⁶ M", "result": "29** %"},
      {"measurement": "% Decrease in cell number", "setting": "MiaPaCa cells; Dose 10⁻⁷ M", "result": 1, "unit": "%"},
      {"measurement": "% Decrease in cell number", "setting": "MiaPaCa cells; Dose 10⁻⁸ M", "result": 1, "unit": "%"},
      {"measurement": "% inhibition of ³H-thymidine incorp.", "setting": "[1]; Dose 10⁻⁶ M", "result": 20, "unit": "%"},
      {"measurement": "% inhibition of ³H-thymidine incorp.", "setting": "[1]; Dose 10⁻⁷ M", "result": 18, "unit": "%"}
    ]},
    {"molecule": "pGlu-His-Trp-Ser-Tyr-D-Lys[Ahx-A₂bu(SAL)₂(Cu)]-Leu-Arg-Pro-Gly-NH₂", "values": [
      {"measurement": "inhibits the [³H]thymidine incorporation into DNA", "setting": "[2]", "result": 87, "unit": "%"}
    ]},
    {"molecule": "[dF]CY[dW]KVCW-NH2 (cysteine pairing not given here)", "values": [
      {"measurement": "times more potent than somatostatin in test for inhibition of GH release", "setting": "GH release", "result": "more than 100 times"}
    ]},
    {"molecule": "C[C@H](N)C(=O)NCC(=O)N[C@H]1CSSC[C@@H](C(=O)O)NC(=O)[C@H](CO)NC(=O)[C@H]([C@@H](C)O)NC(=O)[C@H](Cc2ccccc2)NC(=O)[C@H]([C@@H](C)O)NC(=O)[C@H](CCCCN)NC(=O)[C@H](Cc2c[nH]c3ccccc23)NC(=O)[C@H](Cc2ccccc2)NC(=O)[C@H](Cc2ccccc2)NC(=O)[C@H](CC(N)=O)NC(=O)[C@H](CCCCN)NC1=O", "note": "[SS-14]", "values": [
      {"measurement": "half-life in circulation", "setting": "[3]", "result": "about 3 min"}
    ]}
  ]
}
